In patent publication US20240409536A1, “COMPOUNDS AND METHODS FOR MODULATING SPLICING” (REMIX THERAPEUTICS INC., priority 2021, published 2024):
Structures can show the parent of a compound that is named as a salt.

How the values were obtained:
[1] = test system: Target C; test: HiBiT protein abundance assay, Target C (K562 HiBiT knock-in cells); type: cell-based, human; details: 24 hours
Method in brief: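 Protein abundance read by HiBiT lytic luminescence after 24 h compound exposure (37 °C) of knock-in K562 cells, 10000 cells/well in IMDM+1% FBS. Dosing: 10 points, 3-fold, top 10 μM final, ≤0.25% DMSO. Four-parameter logistic fit gave concentration reducing abundance to 50% of untreated control.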

[2] = test system: HiBiT-tagged MYB protein; test: HiBiT protein abundance assay, MYB (K562 HiBiT knock-in cells); type: cell-based, human; details: 24 hours
Method in brief: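 Luminescent readout of HiBiT-tagged endogenous protein after lysis, following 24 h compound exposure of knock-in K562 lines at 37 °C. Ten 3-fold concentrations from 10 μM final, DMSO ≤0.25%. Four-parameter logistic fit of normalized response gives concentration halving abundance (IC50).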

[3] = test system: MYB mRNA; test: Splicing RT-qPCR assay, MYB canonical (CJ) and alternative (AJ) junction mRNA; type: cell-based; details: Homo sapiens, A673 or K562 cells, 24 hours; for IC50: decrease in canonical junction mRNA; for AC50: increase in alternative junction mRNA
Method in brief: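 Canonical and alternative junction mRNAs measured by cell-lysate one-step RT-qPCR, normalized to PPIA in A673 or GAPDH/GUSB in K562. Cells received compound for 24 h at 37 °C, 5% CO2, 11-point 3-fold series from 10 uM final top dose, DMSO at most 0.25%.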

IC50 [1]	IC50 [2]	IC50 [3]	Structure (SMILES)	AC50 [3]
1 to 10 µM	< 0.1 µM	0.1 to 1 µM	Cc1cn2cc(NC(=O)c3ccc(N4CC5(CNC5)C4)c4ccnnc34)cc(F)c2n1 [Compound 131]	0.1 to 1 µM
0.1 to 1 µM	< 0.1 µM	< 0.1 µM	COc1ncc2c(N3C[C@@H](C)N[C@@H](C)C3)ccc(C(=O)Nc3cn4cc(C)nc4c(OC)n3)c2n1 [Compound 378]	< 0.1 µM
1 to 10 µM	< 0.1 µM	< 0.1 µM	Cc1cn2cc(NC(=O)c3ccc(N4C[C@@H](C)N[C@@H](C)C4)c4nccnc34)cc(F)c2n1 [Compound 186, 8-(3,5-dimethylpiperazin-1-yl)-N-{8-fluoro-2-methylimidazo[1,2-a]pyridin-6-yl}quinoxaline-5-carboxamide]	< 0.1 µM
> 10 µM	1 to 10 µM	1 to 10 µM	CCc1cc(NC(=O)c2ccc(N3CCNCC3)c3ccnnc23)nn2cc(C)nc12 [Compound 168, N-{8-ethyl-2-methylimidazo[1,2-b]pyridazin-6-yl}-5-(piperazin-1-yl)cinnoline-8-carboxamide trifluoroacetic acid salt]	1 to 10 µM
1 to 10 µM	< 0.1 µM	< 0.1 µM	Cc1ccc2c(N3CCNCC3)ccc(C(=O)Nc3cc(F)c4nc(C)cn4c3)c2n1 [Compound 162, N-{8-fluoro-2-methylimidazo[1,2-a]pyridin-6-yl}-2-methyl-5-(piperazin-1-yl)quinoline-8-carboxam-ide, trifluoroacetic acid]	< 0.1 µM
1 to 10 µM	0.1 to 1 µM	0.1 to 1 µM	Cc1cn2cc(NC(=O)c3ccc(N4CCNC5(CCOCC5)C4)c4nccnc34)cc(F)c2n1 [Compound 374]	0.1 to 1 µM
1 to 10 µM	< 0.1 µM	0.1 to 1 µM	Cc1cn2cc(NC(=O)c3ccc(N4CCN5CCC[C@H]5C4)c4ccnnc34)cc(F)c2n1 [Compound 154]	0.1 to 1 µM
0.1 to 1 µM	< 0.1 µM	< 0.1 µM	Cc1cn2cc(NC(=O)c3ccc(N4CCC(N(C)C)CC4)c4ccnnc34)cc(F)c2n1 [Compound 137]	< 0.1 µM
0.1 to 1 µM	< 0.1 µM	< 0.1 µM	CN[C@H]1CCN(c2ccc(C(=O)Nc3cc(F)c4nc(C)cn4c3)c3nccnc23)C1 (single isomer, unassigned) [Compound 194, N-{8-fluoro-2-methylimidazo[1,2-a]pyridin-6-yl}-8-[3-(methylamino)pyrrolidin-1-yl]quinoxaline-5-carboxamide]	0.1 to 1 µM
> 10 µM	> 10 µM	1 to 10 µM	Cc1cn2cc(NC(=O)c3ccc(N4C[C@H]5C[C@@H]4C5N(C)C)c4ccnnc34)cc(F)c2n1 (stereo partly shown) [Compound 155]	1 to 10 µM
> 10 µM	< 0.1 µM	0.1 to 1 µM	Cc1cn2cc(NC(=O)c3ccc(N4C[C@@H](C)N[C@@H](C)C4)c4ccnnc34)nc(C)c2n1 [Compound 172, N-{2,8-dimethylimidazo[1,2-a]pyrazin-6-yl}-5-[(3R,5S)-3,5-dimethylpiperazin-1-yl]cinnoline-8-carboxamide]	< 0.1 µM
> 10 µM	0.1 to 1 µM	0.1 to 1 µM	Cc1nc(NC(=O)c2ccc(N3CCNCC3)c3ccnnc23)cc2cn(C)nc12 [Compound 178, N-{2,7-dimethylpyrazolo[3,4-c]pyridin-5-yl}-5-(piperazin-1-yl)cinnoline-8-carboxamide]	0.1 to 1 µM
> 10 µM	1 to 10 µM	1 to 10 µM	CC(=O)c1cc(NC(=O)c2ccc(N3CCNCC3)c3ccnnc23)cn2cc(C)nc12 [Compound 163, N-{8-acetyl-2-methylimidazo[1,2-a]pyridin-6-yl}-5-(piperazin-1-yl)cinnoline-8-carboxamide]	1 to 10 µM

The remaining lines, values behind:

Structure (SMILES)	IC50 [1]	IC50 [2]	IC50 [3]	AC50 [3]
Cc1cn2cc(NC(=O)c3ccc(N4CCNC5(COC5)C4)c4nccnc34)cc(F)c2n1 [Compound 372]	> 10 µM	1 to 10 µM	1 to 10 µM	1 to 10 µM
COCCOc1ccc2c(N3CCNCC3)ccc(C(=O)Nc3cc(F)c4nc(C)cn4c3)c2n1 [Compound 173, N-{8-fluoro-2-methylimidazo[1,2-a]pyridin-6-yl}-2-(2-methoxyethoxy)-5-(piperazin-1-yl)quinoline-8-carboxamide]	> 10 µM	< 0.1 µM	< 0.1 µM	< 0.1 µM
Cc1cn2cc(NC(=O)c3ccc(N4CCNC(C)C4)c4ccnnc34)cc(F)c2n1 (stereo not shown) [Compound 128]	0.1 to 1 µM	< 0.1 µM	< 0.1 µM	< 0.1 µM
O=C(Nc1cn[nH]c1)c1ccc(N2CCNCC2)c2ccnnc12 [Compound 126]	> 10 µM	> 10 µM	> 10 µM	> 10 µM
CCN1CCC(c2ccc(C(=O)Nc3cc(F)c4nc(C)cn4c3)c3nnccc23)CC1 [Compound 141]	1 to 10 µM	< 0.1 µM	0.1 to 1 µM	0.1 to 1 µM
Cc1cn2cc(NC(=O)c3ccc(N4CCC(N5CCCC5)C4)c4ccnnc34)cc(F)c2n1 (stereo not shown) [Compound 133]	1 to 10 µM	0.1 to 1 µM	1 to 10 µM	0.1 to 1 µM
Cc1cn2cc(NC(=O)c3ccc(N4CCN(C)[C@@H](C)C4)c4ccnnc34)cc(F)c2n1 [Compound 150]	1 to 10 µM	0.1 to 1 µM	0.1 to 1 µM	0.1 to 1 µM
CNC1CCN(c2ccc(C(=O)Nc3cc(F)c4nc(C)cn4c3)c3nc(C)ccc23)C1 (stereo not shown) [Compound 196, N-{8-fluoro-2-methylimidazo[1,2-a]pyridin-6-yl}-2-methyl-5-[3-(methylamino)pyrrolidin-1-yl]quinoline-8-carboxamide 2,2,2-trifluoroacetate]	1 to 10 µM	< 0.1 µM	0.1 to 1 µM	0.1 to 1 µM
Cc1cn2cc(NC(=O)c3ccc(N4CCNC(C)(C)C4)c4nccnc34)cc(F)c2n1 [Compound 220, 8-(3,3-dimethylpiperazin-1-yl)-N-{8-fluoro-2-methylimidazo[1,2-a]pyridin-6-yl}quinoxaline-5-carboxamide]	1 to 10 µM	< 0.1 µM	< 0.1 µM	< 0.1 µM
Cc1cn2cc(NC(=O)c3ccc(N4CCN[C@@H](C)C4)c4nccnc34)cc(F)c2n1 [Compound 187, N-{8-fluoro-2-methylimidazo[1,2-a]pyridin-6-yl}-8-(3-methylpiperazin-1-yl) quinoxaline-5-carboxamide]	1 to 10 µM	< 0.1 µM	< 0.1 µM	< 0.1 µM
Cc1cn2cc(NC(=O)c3ccc(N4CCNCC4)c4ccnnc34)nc(C)c2n1 [Compound 164, N-{2,8-dimethylimidazo[1,2-a]pyrazin-6-yl}-5-(piperazin-1-yl)cinnoline-8-carboxamide 2,2,2-trifluoroacetate]	> 10 µM	0.1 to 1 µM	0.1 to 1 µM	0.1 to 1 µM
Cc1cn2cc(NC(=O)c3ccc(N4CCNCC4)c4ccnnc34)[nH]c(=O)c2n1 [Compound 177, N-{2-methyl-8-oxo-7H-imidazo[1,2-a]pyrazin-6-yl}-5-(piperazin-1-yl)cinnoline-8-carboxamide trifluoroacetic acid salt]	0.1 to 1 µM	0.1 to 1 µM	0.1 to 1 µM	0.1 to 1 µM
